Measured values as given in patent US12377104B1, “Methods for treating a fatty liver disease” (Madrigal Pharmaceuticals, Inc., priority 2024, dated 2025).

Key:
[1] = MAESTRO-NASH: metabolic factors (heart rate, body weight, blood pressure) at week 52; assay type: in vivo, human; conditions: for Body weight, LS mean % CFB / Body weight, LS mean % CFB difference from PBO / DBP, LS mean % CFB / DBP, LS mean % CFB difference from PBO / Glucose, LS mean % CFB / Glucose, LS mean % CFB difference from PBO / HOMA-IR, LS mean % CFB / HOMA-IR, LS mean % CFB difference from PBO / HbA1c, LS mean % CFB / HbA1c, LS mean % CFB difference from PBO / Heart rate (electrocardiogram), LS mean % CFB / Heart rate (electrocardiogram), LS mean % CFB difference from PBO / Insulin, LS mean % CFB / Insulin, LS mean % CFB difference from PBO / SBP, LS mean % CFB / SBP, LS mean % CFB difference from PBO: week 52
[2] = tested on: adults with biopsy-confirmed NASH; test: 36-week Phase 2 serial MRI-PDFF and liver biopsy study: liver volume and PDFF; assay type: in vivo, human
Protocol: Hepatomegaly may cause symptoms (e.g., pain) in NASH patients, and is thought to be driven primarily by high liver fat content. […] This study was to assess the relationship between liver triglycerides as measured by MRI-PDFF and liver volume (LV) in placebo and resmetirom-treated patients.
LV was assessed using a validated artificial intelligence model for segmenting the liver on standard MR images.
LV at baseline was elevated in non-cirrhotic and cirrhotic NASH patients relative to literature values for healthy controls and was greater than predicted even after accounting for sex and body weight. PDFF correlated with LV at baseline in non-cirrhotic (r2=0.19, p<0.001) and more weakly in cirrhotic NASH (r2=0.079, p=0.01).

[3] = human, in vivo
Text: Following once daily doses, steady state was typically reached within 3 to 6 days of dosing.

[4] = Protein binding; assay type: in vitro ADME
[5] = target: T1, CYP2C8 (Homo sapiens, UniProt P10632); test: Concomitant use with a CYP2C8 inhibitor; set-up: from tissue; host or cells: human subjects in vivo (endogenous enzyme); conditions: in vivo
T1 sequence (P10632 1-490): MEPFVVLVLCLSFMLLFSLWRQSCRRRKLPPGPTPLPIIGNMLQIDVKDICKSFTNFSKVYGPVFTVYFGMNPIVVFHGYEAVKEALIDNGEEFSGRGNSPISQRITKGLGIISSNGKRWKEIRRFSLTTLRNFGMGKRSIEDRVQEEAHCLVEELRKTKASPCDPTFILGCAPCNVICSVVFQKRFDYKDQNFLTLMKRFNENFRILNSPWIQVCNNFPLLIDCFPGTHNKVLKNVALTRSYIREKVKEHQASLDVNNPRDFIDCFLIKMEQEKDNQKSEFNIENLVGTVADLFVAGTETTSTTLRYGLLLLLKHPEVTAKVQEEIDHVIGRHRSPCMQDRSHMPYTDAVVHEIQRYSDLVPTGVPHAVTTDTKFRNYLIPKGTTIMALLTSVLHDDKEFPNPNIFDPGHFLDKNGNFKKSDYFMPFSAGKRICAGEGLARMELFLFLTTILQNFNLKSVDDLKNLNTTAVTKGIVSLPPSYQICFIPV

SMILES: CC(C)c1cc(Oc2c(Cl)cc(-n3nc(C#N)c(=O)[nH]c3=O)cc2Cl)n[nH]c1=O [Resmetirom, 2-(3,5-dichloro-4-((5-isopropyl-6-oxo-1,6-dihydropyridazin-3-yl)oxy)phenyl)-3,5-dioxo-2,3,4,5-tetrahydro-1,2,4-triazine-6-carbonitrile]
- Body weight, LS mean % CFB ([1]; 80 mg): −1.2%
- Body weight, LS mean % CFB difference from PBO ([1]; 80 mg): 0.35%
- DBP, LS mean % CFB ([1]; 80 mg): −1.6%
- DBP, LS mean % CFB difference from PBO ([1]; 80 mg): −1.5%
- Glucose, LS mean % CFB ([1]; 80 mg): 0.72%
- Glucose, LS mean % CFB difference from PBO ([1]; 80 mg): 2.9%
- HOMA-IR, LS mean % CFB ([1]; 80 mg): 9.1%
- HOMA-IR, LS mean % CFB difference from PBO ([1]; 80 mg): −5.3%
- HbA1c, LS mean % CFB ([1]; 80 mg): 1.7%
- HbA1c, LS mean % CFB difference from PBO ([1]; 80 mg): 0.19%
- Heart rate (electrocardiogram), LS mean % CFB ([1]; 80 mg): −1.7%
- Heart rate (electrocardiogram), LS mean % CFB difference from PBO ([1]; 80 mg): −1.5%
- Insulin, LS mean % CFB ([1]; 80 mg): 2.8%
- Insulin, LS mean % CFB difference from PBO ([1]; 80 mg): 2.3%
- SBP, LS mean % CFB ([1]; 80 mg): −1.9%
- SBP, LS mean % CFB difference from PBO ([1]; 80 mg): 2.7%
- Body weight, LS mean % CFB ([1]; 100 mg): −1.8%
- Body weight, LS mean % CFB difference from PBO ([1]; 100 mg): −0.88%
- DBP, LS mean % CFB ([1]; 100 mg): −2.0%
- DBP, LS mean % CFB difference from PBO ([1]; 100 mg): −1.9%
- Glucose, LS mean % CFB ([1]; 100 mg): −3.4%
- Glucose, LS mean % CFB difference from PBO ([1]; 100 mg): 5.6%
- HOMA-IR, LS mean % CFB ([1]; 100 mg): 3.4%
- HOMA-IR, LS mean % CFB difference from PBO ([1]; 100 mg): 11.0%
- HbA1c, LS mean % CFB ([1]; 100 mg): 1.5%
- HbA1c, LS mean % CFB difference from PBO ([1]; 100 mg): 0.05%
- Heart rate (electrocardiogram), LS mean % CFB ([1]; 100 mg): 2.6%
- Heart rate (electrocardiogram), LS mean % CFB difference from PBO ([1]; 100 mg): −2.4%
- Insulin, LS mean % CFB ([1]; 100 mg): 3.3%
- Insulin, LS mean % CFB difference from PBO ([1]; 100 mg): 1.8%
- SBP, LS mean % CFB ([1]; 100 mg): 2.1%
- SBP, LS mean % CFB difference from PBO ([1]; 100 mg): 2.9%
- blood pressure ([1]; in vivo): slightly reduced
- effect on heart rate or body weight ([1]; in vivo): no effect on heart rate or body weight
- LV reduction (CFB) ([2]; 12 weeks): −18.6%
- LV reduction (CFB) ([2]; 36 weeks): −20.5%
- patients with ≥15% reduction in liver volume ([2]; Week 12): 69.2%
- exposure increase following once daily dosing [3]: 1.5- to 3 fold
- exposure vs dose [3]: greater than dose proportional
- steady state exposure vs dose [3]: dose proportional
- time to steady state [3]: 3 to 6 days
- protein-bound [4]: greater than 99%
- effect of concomitant CYP2C8 inhibitor on exposure [5]: increase resmetirom Cmax and AUC
